Read-outs that look alike come from different tables or passages of the source.
How the values were obtained:
[1] = test system: TNF-α secreted by synoviocyte; assay: Content of TNF-α in culture supernatant of synoviocyte of RA model rats given test compound; format: in vivo; conditions: rat RA model, dose 30 mg/kg.2d; normal control 0.38 ± 0.027, NaCl 0.74 ± 0.098
In short: (§1)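 Rat RA model; dosing 30 mg/kg.2d; normal and NaCl control groups. Synoviocyte culture supernatant collected; TNF-α and PGE2 measured by one established method, IL-1β by a separate method.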

[2] = test system: IL-1β secreted by synoviocyte; assay: Content of IL-1β in culture supernatant of synoviocyte of RA model rats given test compound; format: in vivo; conditions: rat RA model, dose 30 mg/kg.2d; normal control 0.16 ± 0.034, NaCl 0.49 ± 0.136
In short: as §1

[3] = test system: PGE2 secreted by synoviocyte; assay: Content of PGE2 in culture supernatant of synoviocyte of RA model rats given test compound; format: in vivo; conditions: rat RA model, dose 30 mg/kg.2d; normal control 8.34 ± 1.29, NaCl 32.44 ± 10.32
In short: as §1

cancer stem cells = assay: Survival rate of cancer stem cells after test compound is added (flow cytometry, Annexin V-FITC/PI, clinical specimen); format: cell-based, patient; conditions: Homo sapiens, 18 h
In short: (§2)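 Survival was determined in clinical specimens after an 18 h compound treatment, using Annexin V-FITC/PI apoptosis staining and flow cytometry.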

cancer cells = assay: Survival rate of cancer cells after test compound is added (flow cytometry, Annexin V-FITC/PI, clinical specimen); format: cell-based, patient; conditions: Homo sapiens, 18 h, read-out: Survival rate (%) All cells (Stem cells and ordinary cells)
In short: as §2

[4] = Head and neck squamous cell carcinomas

Q: Which “Content of TNF-α in culture supernatant of synoviocyte (x ± s)” value [1] does the source give for [2H][C@@]1(CN(C)C)C(=O)O[C@@H]2[C@@H]3[C@@H](CCC34CC4)C3(CC[C@H]21)CC3 [Compound 46] here?
A: Its value is 0.56 ± 0.034 ng/mL.

Q: What about the “Content of IL-1β in culture supernatant of synoviocyte (x ± s)” value [2] of the same compound?
A: Its value is 0.36 ± 0.067 ng/mL.

Q: What about the “Content of PGE2 in culture supernatant of synoviocyte (x ± s)” value [3] of the same compound?
A: The value was 24.74 ± 2.64 ng/mL.

Q: And the viability at 10 µM (cancer stem cells; AML)?
A: Its viability at 10 µM is 82%.

Q: What about the viability at 20 µM (cancer stem cells; AML) of the same compound?
A: Its viability at 20 µM is 74%.

Q: And the viability at 10 µM (cancer stem cells; Brain glioma)?
A: Its viability at 10 µM is 88%.

Q: What about the viability at 20 µM (cancer stem cells; Brain glioma) of the same compound?
A: Its viability at 20 µM is 81%.

Q: And the viability at 10 µM (cancer stem cells; Brain tumor)?
A: The viability at 10 µM was 88%.

Q: What about the viability at 20 µM (cancer stem cells; Brain tumor) of the same compound?
A: The viability at 20 µM was 81%.

Q: And the viability at 10 µM (cancer stem cells; Breast cancer)?
A: The viability at 10 µM was 82%.

Q: And the viability at 20 µM (cancer stem cells; Breast cancer)?
A: The viability at 20 µM was 76%.

Q: What about the viability at 10 µM (cancer stem cells; CLL) of the same compound?
A: Its viability at 10 µM is 82%.

Q: And the viability at 20 µM (cancer stem cells; CLL)?
A: The viability at 20 µM was 76%.

Q: And the viability at 10 µM (cancer stem cells; CML)?
A: The viability at 10 µM was 85%.

Q: And the viability at 20 µM (cancer stem cells; CML)?
A: The viability at 20 µM was 79%.

Q: What about the viability at 10 µM (cancer stem cells; Children hepatoblastoma) of the same compound?
A: The viability at 10 µM was 84%.

Q: And the viability at 20 µM (cancer stem cells; Children hepatoblastoma)?
A: The viability at 20 µM was 78%.

Q: And the viability at 10 µM (cancer stem cells; Colon adenocarcinoma)?
A: Its viability at 10 µM is 84%.

Q: And the viability at 20 µM (cancer stem cells; Colon adenocarcinoma)?
A: Its viability at 20 µM is 74%.

Q: What about the viability at 10 µM (cancer stem cells; Colorectal cancer) of the same compound?
A: Its viability at 10 µM is 86%.

Q: What about the viability at 20 µM (cancer stem cells; Colorectal cancer) of the same compound?
A: The viability at 20 µM was 78%.

Q: What about the viability at 10 µM (cancer stem cells; Gastric cancer) of the same compound?
A: The viability at 10 µM was 87%.

Q: And the viability at 20 µM (cancer stem cells; Gastric cancer)?
A: The viability at 20 µM was 76%.

Q: And the viability at 10 µM (cancer stem cells; Gastrointestinal tumor)?
A: Its viability at 10 µM is 82%.

Q: What about the viability at 20 µM (cancer stem cells; Gastrointestinal tumor) of the same compound?
A: The viability at 20 µM was 76%.

Q: And the viability at 10 µM (cancer stem cells; Glioma)?
A: Its viability at 10 µM is 87%.

Q: And the viability at 20 µM (cancer stem cells; Glioma)?
A: Its viability at 20 µM is 75%.

Q: And the viability at 10 µM (cancer stem cells; [4])?
A: Its viability at 10 µM is 84%.

Q: And the viability at 20 µM (cancer stem cells; [4])?
A: Its viability at 20 µM is 78%.

Q: And the viability at 10 µM (cancer stem cells; Laryngeal cancer)?
A: The viability at 10 µM was 81%.

Q: And the viability at 20 µM (cancer stem cells; Laryngeal cancer)?
A: Its viability at 20 µM is 75%.

Q: And the viability at 10 µM (cancer stem cells; Liver cancer)?
A: The viability at 10 µM was 81%.

Q: What about the viability at 20 µM (cancer stem cells; Liver cancer) of the same compound?
A: The viability at 20 µM was 75%.

Q: And the viability at 10 µM (cancer stem cells; Lung adenocarcinoma)?
A: Its viability at 10 µM is 85%.

Q: What about the viability at 20 µM (cancer stem cells; Lung adenocarcinoma) of the same compound?
A: Its viability at 20 µM is 79%.

Q: And the viability at 10 µM (cancer stem cells; Lung cancer)?
A: Its viability at 10 µM is 82%.

Q: And the viability at 20 µM (cancer stem cells; Lung cancer)?
A: Its viability at 20 µM is 76%.

Q: And the viability at 10 µM (cancer stem cells; Malignant melanoma)?
A: The viability at 10 µM was 85%.

Q: And the viability at 20 µM (cancer stem cells; Malignant melanoma)?
A: The viability at 20 µM was 77%.

Q: What about the viability at 10 µM (cancer stem cells; Nasopharynx cancer) of the same compound?
A: Its viability at 10 µM is 79%.

Q: And the viability at 20 µM (cancer stem cells; Nasopharynx cancer)?
A: The viability at 20 µM was 72%.

Q: What about the viability at 10 µM (cancer stem cells; Ovarian cancer) of the same compound?
A: The viability at 10 µM was 79%.

Q: What about the viability at 20 µM (cancer stem cells; Ovarian cancer) of the same compound?
A: Its viability at 20 µM is 72%.

Q: What about the viability at 10 µM (cancer stem cells; Pancreatic cancer) of the same compound?
A: Its viability at 10 µM is 85%.

Q: What about the viability at 20 µM (cancer stem cells; Pancreatic cancer) of the same compound?
A: The viability at 20 µM was 79%.

Q: And the viability at 10 µM (cancer stem cells; Prostate cancer)?
A: The viability at 10 µM was 87%.

Q: And the viability at 20 µM (cancer stem cells; Prostate cancer)?
A: Its viability at 20 µM is 76%.

Q: And the viability at 10 µM (cancer stem cells; Retinoblastoma)?
A: The viability at 10 µM was 82%.

Q: And the viability at 20 µM (cancer stem cells; Retinoblastoma)?
A: Its viability at 20 µM is 73%.

Q: And the viability at 10 µM (cancer stem cells; Skin cancer)?
A: Its viability at 10 µM is 85%.

Q: And the viability at 20 µM (cancer stem cells; Skin cancer)?
A: Its viability at 20 µM is 77%.

Q: What about the viability at 10 µM (cancer cells; AML) of the same compound?
A: The viability at 10 µM was 88%.

Q: And the viability at 20 µM (cancer cells; AML)?
A: The viability at 20 µM was 85%.

Q: What about the viability at 10 µM (cancer cells; Brain glioma) of the same compound?
A: Its viability at 10 µM is 91%.

Q: And the viability at 20 µM (cancer cells; Brain glioma)?
A: Its viability at 20 µM is 89%.

Q: What about the viability at 10 µM (cancer cells; Brain tumor) of the same compound?
A: The viability at 10 µM was 91%.

Q: And the viability at 20 µM (cancer cells; Brain tumor)?
A: Its viability at 20 µM is 89%.

Q: What about the viability at 10 µM (cancer cells; Breast cancer) of the same compound?
A: The viability at 10 µM was 89%.

Q: What about the viability at 20 µM (cancer cells; Breast cancer) of the same compound?
A: The viability at 20 µM was 86%.

Q: And the viability at 10 µM (cancer cells; CLL)?
A: The viability at 10 µM was 88%.

Q: And the viability at 20 µM (cancer cells; CLL)?
A: Its viability at 20 µM is 89%.

Q: What about the viability at 10 µM (cancer cells; CML) of the same compound?
A: Its viability at 10 µM is 93%.

Q: And the viability at 20 µM (cancer cells; CML)?
A: Its viability at 20 µM is 86%.

Q: What about the viability at 10 µM (cancer cells; Children hepatoblastoma) of the same compound?
A: Its viability at 10 µM is 91%.

Q: And the viability at 20 µM (cancer cells; Children hepatoblastoma)?
A: Its viability at 20 µM is 88%.

Q: And the viability at 10 µM (cancer cells; Colon adenocarcinoma)?
A: Its viability at 10 µM is 89%.

Q: And the viability at 20 µM (cancer cells; Colon adenocarcinoma)?
A: Its viability at 20 µM is 86%.

Q: What about the viability at 10 µM (cancer cells; Colorectal cancer) of the same compound?
A: Its viability at 10 µM is 93%.

Q: What about the viability at 20 µM (cancer cells; Colorectal cancer) of the same compound?
A: Its viability at 20 µM is 92%.

Q: And the viability at 10 µM (cancer cells; Gastric cancer)?
A: Its viability at 10 µM is 94%.

Q: And the viability at 20 µM (cancer cells; Gastric cancer)?
A: Its viability at 20 µM is 87%.

Q: What about the viability at 10 µM (cancer cells; Gastrointestinal tumor) of the same compound?
A: The viability at 10 µM was 89%.

Q: What about the viability at 20 µM (cancer cells; Gastrointestinal tumor) of the same compound?
A: Its viability at 20 µM is 86%.

Q: And the viability at 10 µM (cancer cells; Glioma)?
A: Its viability at 10 µM is 91%.

Q: What about the viability at 20 µM (cancer cells; Glioma) of the same compound?
A: Its viability at 20 µM is 84%.

Q: What about the viability at 10 µM (cancer cells; [4]) of the same compound?
A: The viability at 10 µM was 91%.

Q: What about the viability at 20 µM (cancer cells; [4]) of the same compound?
A: The viability at 20 µM was 88%.

Q: And the viability at 10 µM (cancer cells; Laryngeal cancer)?
A: Its viability at 10 µM is 87%.

Q: What about the viability at 20 µM (cancer cells; Laryngeal cancer) of the same compound?
A: The viability at 20 µM was 83%.

Q: And the viability at 10 µM (cancer cells; Liver cancer)?
A: The viability at 10 µM was 87%.

Q: What about the viability at 20 µM (cancer cells; Liver cancer) of the same compound?
A: Its viability at 20 µM is 83%.

Q: And the viability at 10 µM (cancer cells; Lung adenocarcinoma)?
A: Its viability at 10 µM is 93%.

Q: And the viability at 20 µM (cancer cells; Lung adenocarcinoma)?
A: The viability at 20 µM was 86%.

Q: What about the viability at 10 µM (cancer cells; Lung cancer) of the same compound?
A: Its viability at 10 µM is 88%.

Q: And the viability at 20 µM (cancer cells; Lung cancer)?
A: Its viability at 20 µM is 89%.

Q: And the viability at 10 µM (cancer cells; Malignant melanoma)?
A: The viability at 10 µM was 92%.

Q: And the viability at 20 µM (cancer cells; Malignant melanoma)?
A: Its viability at 20 µM is 89%.

Q: And the viability at 10 µM (cancer cells; Nasopharynx cancer)?
A: The viability at 10 µM was 88%.

Q: And the viability at 20 µM (cancer cells; Nasopharynx cancer)?
A: The viability at 20 µM was 81%.

Q: And the viability at 10 µM (cancer cells; Ovarian cancer)?
A: Its viability at 10 µM is 88%.

Q: What about the viability at 20 µM (cancer cells; Ovarian cancer) of the same compound?
A: Its viability at 20 µM is 81%.

Q: What about the viability at 10 µM (cancer cells; Pancreatic cancer) of the same compound?
A: Its viability at 10 µM is 88%.

Q: What about the viability at 20 µM (cancer cells; Pancreatic cancer) of the same compound?
A: Its viability at 20 µM is 85%.

Q: And the viability at 10 µM (cancer cells; Prostate cancer)?
A: The viability at 10 µM was 94%.

Q: What about the viability at 20 µM (cancer cells; Prostate cancer) of the same compound?
A: Its viability at 20 µM is 87%.

Q: What about the viability at 10 µM (cancer cells; Retinoblastoma) of the same compound?
A: The viability at 10 µM was 91%.

Q: And the viability at 20 µM (cancer cells; Retinoblastoma)?
A: Its viability at 20 µM is 87%.

Q: And the viability at 10 µM (cancer cells; Skin cancer)?
A: Its viability at 10 µM is 92%.

Q: What about the viability at 20 µM (cancer cells; Skin cancer) of the same compound?
A: Its viability at 20 µM is 89%.

From patent US10463644B2, “Uses of sesquiterpene lactone compounds and their derivatives in drugs preparation” (ACCENDATECH, priority 2013, dated 2019)
